From PMC7158045 (BMC Plant Biology, 2020) come the findings set out here.

Structures are written as SMILES. Counter-ions that a name gives are not always drawn.

Experiment in all cases: biochemical
One assay addresses T1, ZmDRIK1-R187-P492 (Zea mays, UniProt C0P4K9).
T1 construct: kinase domain, R187-P492
T1 sequence (C0P4K9 1-514): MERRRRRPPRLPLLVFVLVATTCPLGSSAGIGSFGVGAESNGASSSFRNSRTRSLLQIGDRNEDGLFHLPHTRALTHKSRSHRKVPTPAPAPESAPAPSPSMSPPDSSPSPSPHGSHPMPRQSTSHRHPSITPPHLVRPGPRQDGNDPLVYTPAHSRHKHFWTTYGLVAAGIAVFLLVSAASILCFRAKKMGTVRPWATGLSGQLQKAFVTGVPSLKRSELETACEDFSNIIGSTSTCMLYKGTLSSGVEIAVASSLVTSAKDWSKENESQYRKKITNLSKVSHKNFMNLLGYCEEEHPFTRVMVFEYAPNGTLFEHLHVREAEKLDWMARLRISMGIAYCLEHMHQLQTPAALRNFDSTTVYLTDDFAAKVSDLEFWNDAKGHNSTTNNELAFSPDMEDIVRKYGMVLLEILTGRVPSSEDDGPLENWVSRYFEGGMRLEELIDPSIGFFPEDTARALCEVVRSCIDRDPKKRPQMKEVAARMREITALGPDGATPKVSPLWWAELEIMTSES
As to conditions: read-out: dTm B, DSF, Boltzmann fit, 0.1% DMSO.

For another assay, the target named is T2, ZmDRIK1-K217-S514 (Zea mays, UniProt C0P4K9).
T2 construct: kinase domain, K217-S514
T2 sequence (C0P4K9 1-514): T1 sequence (C0P4K9 1-514)
As to conditions: read-out: dTm B, sheet ZmDRIK1-K217-S514;; DSF, Boltzmann fit, 0.1% DMSO.

Assay [1] addresses T3, ZmDRIK1 (DROUGHT RESPONSIVE INACTIVE KINASE 1), kinase domain (Zea mays, UniProt C0P4K9).
T3 construct: gene ZEAMMB73_Zm00001d028770; ZmDRIK1-KD R187-S514 (kinase domain)
T3 sequence (C0P4K9 187-514): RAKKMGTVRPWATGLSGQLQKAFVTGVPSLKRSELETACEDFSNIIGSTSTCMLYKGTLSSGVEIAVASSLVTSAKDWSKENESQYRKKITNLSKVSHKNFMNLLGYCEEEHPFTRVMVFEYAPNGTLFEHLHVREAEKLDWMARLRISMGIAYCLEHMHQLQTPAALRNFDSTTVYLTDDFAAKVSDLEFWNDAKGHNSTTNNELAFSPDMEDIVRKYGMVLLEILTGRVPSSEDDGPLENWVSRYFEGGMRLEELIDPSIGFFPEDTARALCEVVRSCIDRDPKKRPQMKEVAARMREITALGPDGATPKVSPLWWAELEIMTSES
As to conditions: read-out: dTm B, sheet ZmDRIK1-R187-S514;; DSF, Boltzmann fit, 0.1% DMSO.

The target of another assay is T4, ZmDRIK1-K217-P492 (Zea mays, UniProt C0P4K9).
T4 construct: kinase domain, K217-P492
T4 sequence (C0P4K9 1-514): T1 sequence (C0P4K9 1-514)
As to conditions: read-out: dTm B, sheet ZmDRIK1-K217-P492;; DSF, Boltzmann fit, 0.1% DMSO.

Turning to `NC(=O)Nc1cc(-c2cccc(F)c2)sc1C(=O)N[C@H]1CCCNC1` [AZD7762], the ΔTm at 10 µM was -0.167 °C on ZmDRIK1-R187-P492, -0.261 °C on ZmDRIK1-K217-S514, -0.804 °C in assay [1] and -0.323 °C on ZmDRIK1-K217-P492.
Taken in the same sequence, the figures for `CN(C)Cc1cccc(N=C(c2ccccc2)c2c(O)[nH]c3cc(C(=O)N(C)C)ccc23)c1` [BIX 02189] were -0.0835 °C, -0.274 °C, -0.921 °C and 0.0556 °C.
As to `COc1ccccc1-c1cc(Nc2cccc(CS(N)(=O)=O)c2)ncn1` [LDC000067], the ΔTm at 10 µM on ZmDRIK1-R187-P492 is 0.533 °C; at ZmDRIK1-K217-S514 it was 0.865 °C; in assay [1] it was -0.172 °C; on ZmDRIK1-K217-P492, 0.0733 °C.
For `O=c1cc(-c2cccc3c2Sc2ccccc2S3)oc(N2CCOCC2)c1` [KU-55933 (ATM Kinase Inhibitor)], the ΔTm at 10 µM on ZmDRIK1-R187-P492 is -0.282 °C; at ZmDRIK1-K217-S514, -0.342 °C; in assay [1], -0.601 °C; on ZmDRIK1-K217-P492, -1.32 °C.
Consider `COCCOc1ccc2c(c1)ncn2-c1ccc2cccc(N3CCC(N)CC3)c2n1` [CP-673451], for which the ΔTm at 10 µM at ZmDRIK1-R187-P492 is -0.00299 °C; at ZmDRIK1-K217-S514 it was 0.216 °C; in assay [1] it was -0.398 °C; on ZmDRIK1-K217-P492 it was 0.203 °C.
Taken in the same sequence, the figures for `Cc1csc(-c2nnc(Nc3ccc(Oc4ncccc4-c4ccnc(N)n4)cc3)c3ccccc23)c1` [AMG-900] were -0.572 °C, -2.33 °C, -6.12 °C and -3.86 °C.
For `CC[C@H](Nc1ncnc2[nH]cnc12)c1nc2cccc(F)c2c(=O)n1-c1ccccc1` [CAL-101 (Idelalisib)], the ΔTm at 10 µM is -0.326 °C at ZmDRIK1-R187-P492, -0.31 °C at ZmDRIK1-K217-S514, -0.612 °C in assay [1] and -0.995 °C at ZmDRIK1-K217-P492.
With `N=C(N)NC(=N)NCCc1ccccc1` [Phenformin HCl], the ΔTm at 10 µM is -0.125 °C on ZmDRIK1-R187-P492, -0.473 °C on ZmDRIK1-K217-S514, -0.596 °C in assay [1] and -1.3 °C on ZmDRIK1-K217-P492.
Regarding `O=C(NC(NC(=S)Nc1ccc(F)c([N+](=O)[O-])c1)C(Cl)(Cl)Cl)C(c1ccccc1)c1ccccc1` (centres unmarked) [CGK 733], the ΔTm at 10 µM at ZmDRIK1-R187-P492 was 0.467 °C; on ZmDRIK1-K217-S514, 0.146 °C; in assay [1], 0.221 °C; at ZmDRIK1-K217-P492, -1.46 °C.
On to `N#Cc1ccc2[nH]c(O)c(-c3ccc(CN4CCOCC4)cn3)c2c1` [AZD1080], for which the ΔTm at 10 µM on ZmDRIK1-R187-P492 was -0.506 °C; on ZmDRIK1-K217-S514, -0.298 °C; in assay [1], -1.22 °C; at ZmDRIK1-K217-P492 it was -0.787 °C.
On to `CN1CCN(CCOc2cc(OC3CCOCC3)c3c(Nc4c(Cl)ccc5c4OCO5)ncnc3c2)CC1` [Saracatinib (AZD0530)], for which the ΔTm at 10 µM at ZmDRIK1-R187-P492 was -0.196 °C; at ZmDRIK1-K217-S514, -0.253 °C; in assay [1], -0.646 °C; on ZmDRIK1-K217-P492, -1.11 °C.
`COc1ncc(-c2ccc3nccc(-c4ccnnc4)c3c2)cc1NS(=O)(=O)c1ccc(F)cc1F` [GSK2126458 (GSK458)]: the ΔTm at 10 µM is -0.322 °C at ZmDRIK1-R187-P492, -0.505 °C at ZmDRIK1-K217-S514, -0.808 °C in assay [1] and -1.03 °C on ZmDRIK1-K217-P492.
Turning to `CO[C@H]1C[C@@H]2CC[C@@H](C)[C@@](O)(O2)C(=O)C(=O)N2CCCC[C@H]2C(=O)O[C@H]([C@H](C)C[C@@H]2CC[C@@H](OP(C)(C)=O)[C@H](OC)C2)CC(=O)[C@H](C)/C=C(\C)[C@@H](O)[C@@H](OC)C(=O)[C@H](C)C[C@H](C)/C=C/C=C/C=C/1C` [Ridaforolimus (Deforolimus)], the ΔTm at 10 µM on ZmDRIK1-R187-P492 was -0.365 °C; on ZmDRIK1-K217-S514, -0.213 °C; in assay [1], -0.675 °C; on ZmDRIK1-K217-P492 it was -1.84 °C.
Consider `COc1ccc(-c2ccc3c(N4CCOC[C@@H]4C)nc(N4CCOC[C@@H]4C)nc3n2)cc1CO` [AZD8055], for which the ΔTm at 10 µM on ZmDRIK1-R187-P492 was -0.00437 °C; at ZmDRIK1-K217-S514 it was -0.119 °C; in assay [1] it was -0.773 °C; at ZmDRIK1-K217-P492 it was -0.668 °C.
As for `CCN1CCN(Cc2ccc(-c3cc4c(N[C@H](C)c5ccccc5)ncnc4[nH]3)cc2)CC1` [AEE788 (NVP-AEE788)], the ΔTm at 10 µM was -0.159 °C at ZmDRIK1-R187-P492, -0.297 °C at ZmDRIK1-K217-S514, -0.878 °C in assay [1] and -0.494 °C at ZmDRIK1-K217-P492.
Consider `Cc1cc(C)nc(NS(=O)(=O)c2ccc(NC(=S)NC(=O)COc3ccc(Br)cc3Cl)cc2)n1` [ZCL278], for which the ΔTm at 10 µM at ZmDRIK1-R187-P492 is -0.134 °C; at ZmDRIK1-K217-S514, -0.166 °C; in assay [1], -1.01 °C; at ZmDRIK1-K217-P492 it was -1.02 °C.
Consider `Cc1ccc([N+](=O)[O-])cc1S(=O)(=O)N(C)/N=C/c1cnc2ccc(Br)cn12` [PIK-75], for which the ΔTm at 10 µM at ZmDRIK1-R187-P492 was -0.296 °C; at ZmDRIK1-K217-S514 it was -0.221 °C; in assay [1] it was -0.734 °C; at ZmDRIK1-K217-P492, -1.46 °C.
As to `Cc1nc(Nc2n[nH]c3c2CN(C(=O)N[C@H](CN(C)C)c2ccccc2)C3(C)C)c2sccc2n1` [PF-3758309], the ΔTm at 10 µM was -0.393 °C at ZmDRIK1-R187-P492, -0.258 °C on ZmDRIK1-K217-S514, -0.774 °C in assay [1] and -0.748 °C at ZmDRIK1-K217-P492.
Regarding `CC(=O)Nc1nc(C)c(-c2ccc(Cl)c(S(=O)(=O)NCCO)c2)s1` [PIK-93], the ΔTm at 10 µM on ZmDRIK1-R187-P492 is -0.0815 °C; on ZmDRIK1-K217-S514, -0.175 °C; in assay [1] it was -1.08 °C; on ZmDRIK1-K217-P492, -0.556 °C.
As for `CO[C@@H](C(=O)N1Cc2[nH]nc(NC(=O)c3ccc(N4CCN(C)CC4)cc3)c2C1)c1ccccc1` [Danusertib (PHA-739358)], the ΔTm at 10 µM at ZmDRIK1-R187-P492 is -0.184 °C; at ZmDRIK1-K217-S514, -0.209 °C; in assay [1], -0.644 °C; on ZmDRIK1-K217-P492, -0.905 °C.
Regarding `N#CCNC(=O)c1ccc(-c2ccnc(Nc3ccc(N4CCOCC4)cc3)n2)cc1` [CYT387], the ΔTm at 10 µM is -0.227 °C at ZmDRIK1-R187-P492, -0.388 °C at ZmDRIK1-K217-S514, -0.664 °C in assay [1] and -0.574 °C at ZmDRIK1-K217-P492.
On to `CNC(=O)c1ccccc1Sc1ccc2c(/C=C/c3ccccn3)n[nH]c2c1` [Axitinib], for which the ΔTm at 10 µM was -0.367 °C on ZmDRIK1-R187-P492, -0.335 °C at ZmDRIK1-K217-S514, -0.702 °C in assay [1] and -1.24 °C at ZmDRIK1-K217-P492.
On the same counts, the results for `Nc1cc(C(F)(F)F)c(-c2cc(N3CCOCC3)nc(N3CCOCC3)n2)cn1` [BKM120 (NVP-BKM120)] are -0.326 °C, -0.33 °C, -0.731 °C and -1.39 °C.
As for `CC(C)(C#N)c1ccc(N2C(=O)OCc3cnc4ccc(-c5cnc6ccccc6c5)cc4c32)cc1` [ETP-46464], the ΔTm at 10 µM at ZmDRIK1-R187-P492 is -0.423 °C; at ZmDRIK1-K217-S514, -0.552 °C; in assay [1], -0.702 °C; on ZmDRIK1-K217-P492 it was -1.05 °C.
Taken in the same sequence, the figures for `Clc1ccc(C2(c3ccc(-c4cn[nH]c4)cc3)CCNCC2)cc1` [AT7867] were -0.25 °C, 0.339 °C, -0.971 °C and -0.759 °C.
With `CNc1nc(Nc2cn(C(C)(C)C#N)nc2C)ncc1C(F)(F)F` [GNE-0877], the ΔTm at 10 µM on ZmDRIK1-R187-P492 was -0.575 °C; on ZmDRIK1-K217-S514, -0.602 °C; in assay [1], -0.833 °C; at ZmDRIK1-K217-P492 it was -0.848 °C.
Consider `Oc1ccc(Nc2nc(-c3ccc(Cl)cc3)cs2)cc1` [SKI II], for which the ΔTm at 10 µM is -2.86 °C on ZmDRIK1-R187-P492, -1.52 °C at ZmDRIK1-K217-S514, 0.0373 °C in assay [1] and -0.22 °C at ZmDRIK1-K217-P492.
`COc1cc(OC)c(/C=C/S(=O)(=O)Cc2ccc(OC)c(NCC(=O)O)c2)c(OC)c1` [Rigosertib (ON-01910)]: the ΔTm at 10 µM on ZmDRIK1-R187-P492 is -0.217 °C; at ZmDRIK1-K217-S514, -0.421 °C; in assay [1] it was -0.824 °C; at ZmDRIK1-K217-P492, -0.805 °C.
Take `CNC(=O)c1ccc(C)c(-n2c(C)cc(OCc3ccc(F)cc3F)c(Br)c2=O)c1` [PH-797804]: the ΔTm at 10 µM at ZmDRIK1-R187-P492 is -0.28 °C; at ZmDRIK1-K217-S514, -0.43 °C; in assay [1], -0.839 °C; at ZmDRIK1-K217-P492 it was -0.248 °C.
